Measurements reported in patent US10280179B2, “Spiroquinoxaline derivatives as inhibitors of non-apoptotic regulated cell-death” (Helmholtz Zentrum Munchen—Deutches Forschungszentrum Fur …, priority 2013, dated 2019).
Like-named read-outs stand apart in the source and are kept apart here.

Tests used:
[1] = test system: mouse hippocampal cell line (Ht22); test: Inhibition of glutamate-induced non-apoptotic cell death (Example B.2); format: cell-based; conditions: HT-22, Ht22 cells
Summary of the method: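 Ht22 cells (2,000/well, DMEM/10% FBS) seeded together with 5 mM glutamate and compound (0.5 pM to 100 μM, triplicate), incubated 72 h at 37 °C/5% CO2. Cell survival then quantified; glutamate alone as negative control, alpha-tocopherol as positive control.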

[2] = Cellular toxicity, same assay as Example B.4 without TAM (Example B.5); format: cell-based; conditions: mouse; Pfa1 cells without TAM; read-out: TC50 (the source's name)
Text: Cellular Toxicity of Compounds of the Invention
An estimate of the toxicity for compounds of the invention was obtained by using the same assay as described in Example B.4, but without the addition of TAM. […] Such TC50 values obtained for certain compounds disclosed herein, together with an approximate therapeutic window (estimated by dividing each TC50 by the corresponding IC50 determined from example B.4) are shown in Table 3.

[3] = test system: C57BL/6 mice; test: Liver ischemia-reperfusion injury animal model (Example C.1); format: in vivo, mouse; conditions: liver IRI (90 min ischemia, 24 h reperfusion), single i.p. dose 10 mg/Kg, compared to vehicle control
Protocol: FIG. 2: Efficacy of a compound of the invention in an animal model of liver IRI. […] The “Sham” bar represents the data from control animals that were treated to the same protocol but without atraumatic clipping. Errors shown are SEM. Significant differences are seen between IRI+vehicle compared to IRI+Cmpd, as well as between IRI+vehicle compared to Sham+vehicle.
Briefly, to test such utility of compounds disclosed herein, ischemia is induced in the liver of 6-8 week old C57BL/6 mice (Charles River) by midline laparotomy whereby the blood supply to the left and median lobes of the liver is interrupted via atraumatic clipping for 90 min, followed by reperfusion for a period of 24 h. After reperfusion, but prior to final abdominal closure, animals are treated with a single i.p. dose of the compound to be tested (10 mg/Kg), or with vehicle (DMSO) as negative control. Markers to be investigated for IRI of liver include liver parameters from serum (ALT/GPT, AST/GOT, Bilirubin, Urea), histopathological analysis and rtPCR of inflammatory and non-apoptotic cell death markers (such as TNF-alpha and INF-gamma). […] The “Sham” bar represents the data from control animals that were treated to the same protocol but without atraumatic clipping.

[4] = test system: C57BL/6 mice; test: Kidney ischemia-reperfusion injury animal model (Example C.2); format: in vivo, mouse; conditions: kidney IRI, compared to vehicle control, FIG. 3
Protocol: FIG. 3: Efficacy of a compound of the invention in an animal model of kidney IRI.
Briefly, to test such utility of compounds disclosed herein, ischemia is induced in the kidney of 6-8 week old C57BL/6 mice by interruption of the blood supply to the kidney via reversible clipping of the Arteria renalis for 30 min, followed by reperfusion for a period of 24 h. Mice are treated with compound (or vehicle control) generally as described in Example C.1 at 1 hour prior to and four hours after abdominal closure and once daily over a period of 14 days. Markers to be investigated for IRI of kidney include reduction of creatinine levels in the serum along with histopathological analysis.

[5] = test system: SH-SY5Y cells; test: TNF-alpha-induced apoptosis, specificity for non-apoptotic cell death (Example B.3); format: cell-based, human; conditions: compound 1 μM, TNF-alpha 10 ng/mL, FIG. 1
Protocol: SH-SY5Y cells were propagated and seeded in 96-well plates, together with compound N-1, N-2, N-10 of Table 1-N (FIG. 1(a)), compound O/S-6 or O/S-3 of Table 1-O/S (FIG. 1(b)), or compound C-12, C-91, or C-205 of Table 1-C (FIG. 1(c)) (each 1 μM) and TNF-alpha was added (final concentration: 10 ng/mL) to induce apoptosis. The apoptosis and pan-caspase inhibitor z-vad (final concentration: 50 μM) and the necroptosis inhibitor Necrostatin-1 (Nec-1; final concentration: 5 μM) were used for comparison. Control wells were established with vehicle only (DMSO), with and without treatment with TNF-alpha to induce apoptosis. Cells were incubated, and cell survival was detected and quantified. Percentage cell survival after TNF-alpha-induced apoptosis is shown (error bars indicate standard deviation (SD)).
Briefly, SH-SY5Y cells were propagated and seeded in 96-well plates, together with the compound to be tested (1 μM), generally as described in Example B.1, except they were seeded at 1,000 cell/well and instead of BSO, TNF-alpha (Invitrogen) was added to a final concentration of 10 ng/mL to induce apoptosis. The apoptosis and pan-caspase inhibitor Z-VAD-fmk (Enzo Life Science; final concentration 50 μM) and the necroptosis inhibitor Necrostatin-1 (Nec-1; Enzo Life Science; final concentration 5 μM) were used for comparison. Control wells were established with vehicle only (DMSO), with and without treatment with TNF-alpha to induce apoptosis. Cells were incubated, and cell survival was detected and quantified as described in Example B.1.

Clc1cccc(CNC2=Nc3ccccc3NC23CCNCC3)c1 [N-2]
IC50 ([1]; glutamate 5 mM, 72 hours, cell survival, read-out: Ht22/GLU (Example B.2) IC50): ~10 nM
IC50 ([1]; glutamate-induced cell death, read-out: Ht22/GLU): < 200 nM
CC50 [2]: 5000 to 10000 nM
serum marker for liver cell damage GPT ([3]; FIG. 2(a)): significant reduction
serum marker for liver cell damage GOT ([3]; FIG. 2(b)): significant reduction
survival of mice suffering kidney-ischemic reperfusion injury ([4]; dose 1 mg/kg): Improved survival
survival of mice suffering kidney-ischemic reperfusion injury ([4]; dose 10 mg/kg): Improved survival
Percentage cell survival after TNF-alpha-induced apoptosis [5]: Non-inhibition of apoptotic cell-death
